Source: the supplement of paper PMC5908809

Legend:
[1] = tested on: normal primary NK cells, pool 2 (3 donors) (IL-2 2.5 ng/mL); assay: percent inhibition of viability; higher = more inhibition; details: 72 h
[2] = tested on: normal primary NK cells, pool 1 (3 donors), resting (IL-2 0 ng/mL); assay: as above; details: 72 h
DERL-7 (IL-2 2.5 ng/mL) [3] = assay: as above; details: 72 h
IMC-1 (IL-2 20 ng/mL) [4] = assay: as above; details: 72 h
NK-92 (IL-2 2.5 ng/mL) [5] = assay: as above; details: 72 h
[6] = tested on: normal primary NK cells, pool 3 (3 donors) (IL-2 2.5 ng/mL); assay: as above; details: 72 h
KHYG-1 (IL-2 2.5 ng/mL) [7] = assay: as above; details: 72 h
NKL (IL-2 2.5 ng/mL) [8] = assay: as above; details: 72 h
[9] = tested on: normal primary NK cells, pool 1 (3 donors) (IL-2 2.5 ng/mL); assay: as above; details: 72 h
YT (IL-2 2.5 ng/mL) [10] = assay: as above; details: 72 h
NK-YS (IL-2 2.5 ng/mL) [11] = assay: as above; details: 72 h
KAI3 (IL-2 2.5 ng/mL) [12] = assay: as above; details: 72 h
SNK-6 (IL-2 2.5 ng/mL) [13] = assay: as above; details: 72 h
[14] = tested on: normal NK cells expanded with K562-aAPC; assay: drug sensitivity score (DSS) (DSS units); higher = more sensitive; extreme values may be limits of the assay; details: 72 h; IL-2 2.5 ng/mL
Method: (§1)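 Drug sensitivity and resistance testing on K562-aAPC-expanded normal NK cells: 5 concentrations (10-fold steps over a 10,000-fold range), 72 h at 37 °C, viability by CellTiter-Glo normalised to DMSO and benzethonium chloride controls; DSS from the fitted curve.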

[15] = tested on: normal primary NK cells, pool 2 (3 donors) (IL-2 2.5 ng/mL); assay: as above; details: 72 h
[16] = tested on: normal primary NK cells, pool 1 (3 donors), resting (IL-2 0 ng/mL); assay: as above; details: 72 h
DERL-7 (IL-2 2.5 ng/mL) [17] = assay: as above; details: 72 h
IMC-1 (IL-2 20 ng/mL) [18] = assay: as above; details: 72 h
NK-92 (IL-2 2.5 ng/mL) [19] = assay: as above; details: 72 h
[20] = tested on: normal primary NK cells, pool 3 (3 donors) (IL-2 2.5 ng/mL); assay: as above; details: 72 h
KHYG-1 (IL-2 2.5 ng/mL) [21] = assay: as above; details: 72 h
NKL (IL-2 2.5 ng/mL) [22] = assay: as above; details: 72 h
[23] = tested on: normal primary NK cells, pool 1 (3 donors) (IL-2 2.5 ng/mL); assay: as above; details: 72 h
YT (IL-2 2.5 ng/mL) [24] = assay: as above; details: 72 h
NK-YS (IL-2 2.5 ng/mL) [25] = assay: as above; details: 72 h
KAI3 (IL-2 2.5 ng/mL) [26] = assay: as above; details: 72 h
SNK-6 (IL-2 2.5 ng/mL) [27] = assay: as above; details: 72 h
[28] = tested on: normal NK cells expanded with K562-aAPC; assay: percent inhibition of viability; higher = more inhibition; details: 72 h, IL-2 2.5 ng/mL
Method: as §1

O=C(NC[C@H](O)CO)c1ccncc1Nc1ccc(I)cc1F [Pimasertib] (max concentration tested 10000 nM)
percent inhibition of viability [%]
Details	1 nM	10 nM	100 nM	1000 nM	10000 nM
DERL-7 (IL-2 2.5 ng/mL) [3]	0.5	14.9	29.4	37.8	49.7
IMC-1 (IL-2 20 ng/mL) [4]	-6.58	-3.26	-9.96	-4.58	5.6
KAI3 (IL-2 2.5 ng/mL) [12]	-9.91	7.15	14.8	26.4	27.1
KHYG-1 (IL-2 2.5 ng/mL) [7]	-2.11	9.27	31.9	59.1	61.3
NK-92 (IL-2 2.5 ng/mL) [5]	6.11	-18.6	-12.1	-18.6	-16.4
NK-YS (IL-2 2.5 ng/mL) [11]	-5.36	-3.17	-0.42	15.1	19.9
NKL (IL-2 2.5 ng/mL) [8]	-5.35	10.9	45.4	63.2	66.3
SNK-6 (IL-2 2.5 ng/mL) [13]	-12.2	-4.53	-21	-22.5	-8.46
YT (IL-2 2.5 ng/mL) [10]	0.32	1.92	-0.1	10.8	10.6
[1]	-12.9	1.34	0.74	1.01	13.2
[2]	10.1	-6.83	-15.1	8.84	24.8
[6]	-8.93	-10.8	-10.3	-6.25	5.59
[9]	-8.76	5.99	2.83	15.8	22.1
[28]	0.25	-8.62	0.85	3.75	18

Details	drug sensitivity score
DERL-7 (IL-2 2.5 ng/mL) [17]	11.6
IMC-1 (IL-2 20 ng/mL) [18]	0
KAI3 (IL-2 2.5 ng/mL) [26]	5.63
KHYG-1 (IL-2 2.5 ng/mL) [21]	14.8
NK-92 (IL-2 2.5 ng/mL) [19]	0
NK-YS (IL-2 2.5 ng/mL) [25]	2.03
NKL (IL-2 2.5 ng/mL) [22]	18.1
SNK-6 (IL-2 2.5 ng/mL) [27]	0
YT (IL-2 2.5 ng/mL) [24]	0.17
[14]	0.89
[15]	0.17
[16]	2.06
[20]	0
[23]	2.21

CC(C)c1c(C(=O)Nc2ccccc2)c(-c2ccccc2)c(-c2ccc(F)cc2)n1CC[C@@H](O)C[C@@H](O)CC(=O)O [Atorvastatin] (max concentration tested 10000 nM)
percent inhibition of viability [%]
Details	1 nM	10 nM	100 nM	1000 nM	10000 nM
DERL-7 (IL-2 2.5 ng/mL) [3]	-2.58	-0.16	-3.51	6.56	54.2
IMC-1 (IL-2 20 ng/mL) [4]	-2.01	0.19	4.44	25.6	99.2
KAI3 (IL-2 2.5 ng/mL) [12]	-7.62	-6.46	-2.5	3.32	63.8
KHYG-1 (IL-2 2.5 ng/mL) [7]	1.48	-0.11	9.42	7.71	81.3
NK-92 (IL-2 2.5 ng/mL) [5]	-10.9	-15.5	4.4	-6.37	58.2
NK-YS (IL-2 2.5 ng/mL) [11]	0.24	1.58	11.9	64.8	103
NKL (IL-2 2.5 ng/mL) [8]	-16	-12.1	14.8	83.8	102
SNK-6 (IL-2 2.5 ng/mL) [13]	-3.12	4.06	1.93	0.27	41.9
YT (IL-2 2.5 ng/mL) [10]	0.23	1.11	4.51	22.4	99.1
[1]	-7.16	-1.31	1.87	-2.86	29.2
[2]	-1.6	-6.76	-4.51	2.54	45.6
[6]	-6.89	-6.08	-9.88	-12.8	4.72
[9]	-3.15	-14.1	-7.04	-6.72	27.1
[28]	-5.69	-0.26	-0.77	-4.84	28.3

Details	drug sensitivity score
DERL-7 (IL-2 2.5 ng/mL) [17]	4
IMC-1 (IL-2 20 ng/mL) [18]	9.38
KAI3 (IL-2 2.5 ng/mL) [26]	3.95
KHYG-1 (IL-2 2.5 ng/mL) [21]	5.76
NK-92 (IL-2 2.5 ng/mL) [19]	2.7
NK-YS (IL-2 2.5 ng/mL) [25]	14
NKL (IL-2 2.5 ng/mL) [22]	17.2
SNK-6 (IL-2 2.5 ng/mL) [27]	2.14
YT (IL-2 2.5 ng/mL) [24]	9
[14]	0.92
[15]	1.06
[16]	2.71
[20]	0
[23]	0.79

C[C@]12CC[C@@H]3c4ccc(O)cc4C[C@@H](CCCCCCCCC[S+]([O-])CCCC(F)(F)C(F)(F)F)[C@H]3[C@@H]1CC[C@@H]2O (stereo partly specified) [Fulvestrant] (max concentration tested 1000 nM)
percent inhibition of viability [%]
Details	0.1 nM	1 nM	10 nM	100 nM	1000 nM
DERL-7 (IL-2 2.5 ng/mL) [3]	-6.65	4.87	1.14	-1.33	2.61
IMC-1 (IL-2 20 ng/mL) [4]	-8.22	-3.8	-1.67	-1.37	16.7
KAI3 (IL-2 2.5 ng/mL) [12]	-10.2	-0.09	8.43	5.9	26.5
KHYG-1 (IL-2 2.5 ng/mL) [7]	-10.8	-4.41	-2.37	-6.26	7.16
NK-92 (IL-2 2.5 ng/mL) [5]	-8.22	-4.79	-0.7	-0.61	35.1
NK-YS (IL-2 2.5 ng/mL) [11]	-4.05	-5.76	-3.52	0.56	15.3
NKL (IL-2 2.5 ng/mL) [8]	-3.73	1.23	1.02	9.49	38.2
SNK-6 (IL-2 2.5 ng/mL) [13]	-16.9	6.87	-25.7	-23.9	-13.9
YT (IL-2 2.5 ng/mL) [10]	-6.18	3.96	7.53	-1.76	28.7
[1]	-0.86	-4.87	4.79	2.49	3.75
[2]	7.52	-6.84	15.3	7.9	31.3
[6]	6.08	3.62	2.89	-5.25	-3.36
[9]	-3.4	-8.82	2.76	-0.05	-2.99
[28]	-7.38	-10.5	-9.28	-0.53	6.13

Details	drug sensitivity score
DERL-7 (IL-2 2.5 ng/mL) [17]	0
IMC-1 (IL-2 20 ng/mL) [18]	0.29
KAI3 (IL-2 2.5 ng/mL) [26]	1.68
KHYG-1 (IL-2 2.5 ng/mL) [21]	0
NK-92 (IL-2 2.5 ng/mL) [19]	1.6
NK-YS (IL-2 2.5 ng/mL) [25]	0.29
NKL (IL-2 2.5 ng/mL) [22]	3.35
SNK-6 (IL-2 2.5 ng/mL) [27]	0
YT (IL-2 2.5 ng/mL) [24]	1.09
[14]	0
[15]	0
[16]	2.33
[20]	0
[23]	0

CC(C)(C)c1nc(-c2cccc(NS(=O)(=O)c3c(F)cccc3F)c2F)c(-c2ccnc(N)n2)s1 [Dabrafenib] (max concentration tested 2500 nM)
percent inhibition of viability [%]
Details	0.25 nM	2.5 nM	25 nM	250 nM	2500 nM
DERL-7 (IL-2 2.5 ng/mL) [3]	3.06	5	-0.47	-3.32	34.5
IMC-1 (IL-2 20 ng/mL) [4]	-5.61	-2.47	-3.07	-7.52	8.46
KAI3 (IL-2 2.5 ng/mL) [12]	-6.1	1.01	2.43	-4.3	31.2
KHYG-1 (IL-2 2.5 ng/mL) [7]	-2.85	-0.1	2.78	71.5	30.8
NK-92 (IL-2 2.5 ng/mL) [5]	-8.16	-11.7	-14.1	-7.91	-1.09
NK-YS (IL-2 2.5 ng/mL) [11]	-4.15	-0.92	0.04	-2.02	0.94
NKL (IL-2 2.5 ng/mL) [8]	-14.1	-19.1	-20.9	-29.2	-29.9
SNK-6 (IL-2 2.5 ng/mL) [13]	-5.34	1.84	-12.1	0.17	0
YT (IL-2 2.5 ng/mL) [10]	-0.07	-0.32	0.19	3.06	16.2
[1]	-9.64	-5.28	-9.79	-4.67	-5.57
[2]	-10.3	-11.7	7.48	10	45
[6]	-9.2	-8.52	-4.83	-5.01	-0.02
[9]	-7.46	-6.18	-4.85	-3.22	3.89
[28]	-3.8	-9.82	-8.95	-1.61	6.4

Details	drug sensitivity score
DERL-7 (IL-2 2.5 ng/mL) [17]	1.38
IMC-1 (IL-2 20 ng/mL) [18]	0
KAI3 (IL-2 2.5 ng/mL) [26]	1.13
KHYG-1 (IL-2 2.5 ng/mL) [21]	13.4
NK-92 (IL-2 2.5 ng/mL) [19]	0.89
NK-YS (IL-2 2.5 ng/mL) [25]	0
NKL (IL-2 2.5 ng/mL) [22]	0.89
SNK-6 (IL-2 2.5 ng/mL) [27]	0
YT (IL-2 2.5 ng/mL) [24]	0.64
[14]	0
[15]	0.89
[16]	3.85
[20]	0.89
[23]	0
